Source: US20140120190A1, “METHODS OF PREPARING PRICKLY-ASH PEEL EXTRACTS AND COSMETIC COMPOSITIONS INCORPORATING PRICKLY-ASH PEEL EXTRACTS” (priority 2012, published 2014)

What was measured:
Antioxidant effect = test: Antioxidant effect
Source text: At the same time, the molecular weight of gx-50 is so small that gx-50 is more easily absorbed via the skin.

skin = test: Effects on skin at the tissue level (collagen, elastin, hair follicles, senile plaques)
NF-κB gene = test: Blocking of NF-κB gene expression

## COc1ccc(CCNC(=O)/C=C/c2ccccc2)cc1OC [gx-50]
Antioxidant effect
  antioxidant effect: possessing an antioxidant effect
skin
  loss of collagen and elastin in skin: helps prevent the loss of collagen and elastin in skin
NF-κB gene
  expression of the NF-κB gene: effectively blocks the expression of the NF-κB gene
